In US9750254B2, “Agricultural or horticultural chemical, method of controlling plant diseases, and product for controlling plant diseases” (Kureha Corporation, priority 2013, dated 2017):

Columns and labels:
Format in all cases: cell-based
[1] = system: Gaeumannomyces graminis; assay: Test Example 2: in vitro antimicrobial activity test, colony diameter on PDA plate with chemicals, 20° C., three days
Procedure: On the other hand, Glomerella cingulata was punched out from the vicinity of a Glomerella cingulata colony that was cultured in advance on another plate culture medium free of the chemicals using a cork borer having a diameter of 4 mm, and inoculated on the PDA plate culture medium in which the chemicals were mixed. After culturing at 25° C. for seven days, the diameter of the grown colony was measured. […] Additionally, in the above formula, R represents a fungal growth inhibition rate (%), dc represents the diameter of a colony on an untreated plate, and dt represents the diameter of a colony on a chemical-treated plate. […] Meanwhile, Gaeumannomyces graminis was punched out from the periphery of a colony of Gaeumannomyces graminis using a cork borer having a diameter of 4 mm, and inoculated onto the PDA agar plates in which the chemical(s) was (were) mixed.

[2] = system: Pyrenophora graminea; assay: Test Example 7: in vitro antimicrobial activity test (dimoxystrobin), same manner as Test Example 6; conditions: Compound (1) 0 ppm
Procedure: (§1) On the other hand, Glomerella cingulata was punched out from the vicinity of a Glomerella cingulata colony that was cultured in advance on another plate culture medium free of the chemicals using a cork borer having a diameter of 4 mm, and inoculated on the PDA plate culture medium in which the chemicals were mixed. After culturing at 25° C. for seven days, the diameter of the grown colony was measured. […] Additionally, in the above formula, R represents a fungal growth inhibition rate (%), dc represents the diameter of a colony on an untreated plate, and dt represents the diameter of a colony on a chemical-treated plate.
(§2) Inhibition rate when used as a mixture (theoretical value)=α+(100−α)×β)/100 Note that, in the formula above, α and β respectively represent the inhibition rates of the compounds during single use of the compounds.
(§3) Pyrenophora graminea was punched out from the vicinity of a Pyrenophora graminea colony that was cultured in advance on another plate culture medium free of the chemicals using a cork borer having a diameter of 4 mm, and inoculated on the PDA plate culture medium in which the chemicals were mixed. After culturing at 25° C. for 3 days, the diameter of the grown colony was measured.

[3] = system: Glomerella cingulata; assay: Test Example 1: in vitro antimicrobial activity test, colony diameter on PDA plate with chemicals, 25° C., seven days
Procedure: as §1

[4] = system: Pyrenophora graminea; assay: Test Example 6: in vitro antimicrobial activity test (picoxystrobin), colony diameter on PDA plate with chemicals, 25° C., 3 days; conditions: Compound (1) 0 ppm
Procedure: as §1, §2, §3

[5] = system: Pseudocercosporella herpotrichoides; assay: Test Example 3: in vitro antimicrobial activity test, colony diameter on PDA plate with chemicals, 20° C., seven days
Procedure: as §1, §2
Pseudocercosporella herpotrichoides was punched out from the vicinity of a Pseudocercosporella herpotrichoides colony using a cork borer having a diameter of 4 mm, and inoculated on the PDA plate culture medium in which the chemicals were mixed. After culturing at 20° C. for seven days, the diameter of the grown colony was measured.

[6] = system: Septoria tritici; assay: Test Example 4: in vitro antimicrobial activity test, colony diameter on PDA plate with chemicals, 25° C., 14 days
Procedure: as §1, §2
In this test example, the antimicrobial action of a mixed formulation of compound (1) and trifloxystrobin against Septoria tritici was tested.
Septoria tritici was punched out from the vicinity of a Septoria tritici colony that was cultured in advance on another plate culture medium free of the chemicals using a cork borer having a diameter of 4 mm, and inoculated on the PDA plate culture medium in which the chemicals were mixed.

[7] = system: Rhynchosporium secalis; assay: Test Example 5: in vitro antimicrobial activity test, colony diameter on PDA plate with chemicals, 25° C., 14 days
Procedure: Additionally, in the above formula, R represents a fungal growth inhibition rate (%), dc represents the diameter of a colony on an untreated plate, and dt represents the diameter of a colony on a chemical-treated plate. […] Rhynchosporium secalis was punched out from the vicinity of a Rhynchosporium secalis colony that was cultured in advance on another plate culture medium free of the chemicals using a cork borer having a diameter of 4 mm, and inoculated on the PDA plate culture medium in which the chemicals were mixed. After culturing at 25° C. for 14 days, the diameter of the grown colony was measured.

[8] = Colletotrichum gloeosporioides, read-out: Fungal growth inhibition rate (%) Measured value
[9] = Oculimacula yallundae, read-out: Fungal growth inhibition rate (%) Measured value
[10] = Zymoseptoria tritici, read-out: Fungal growth inhibition rate (%) Measured value

CO/C=C(/C(=O)OC)c1ccccc1Oc1cc(Oc2ccccc2C#N)ncn1 [Azoxystrobin, azoxystrobin]
Fungal growth inhibition rate (%) Measured value ([1]; Compound (1) 0 ppm, Azoxystrobin 0.010 ppm): 35%
Fungal growth inhibition rate (%) Measured value ([1]; Compound (1) 0 ppm, Azoxystrobin 2.5 ppm): 98%

CNC(=O)/C(=N/OC)c1ccccc1COc1cc(C)ccc1C [Dimoxystrobin, dimoxystrobin]
Fungal growth inhibition rate (%) Measured value ([2]; Dimoxystrobin 0.005 ppm): 28%
Fungal growth inhibition rate (%) Measured value ([2]; Dimoxystrobin 0.02 ppm): 55%
Fungal growth inhibition rate (%) Measured value ([2]; Dimoxystrobin 0.08 ppm): 71%

COC(=O)N(OC)c1ccccc1COc1ccn(-c2ccc(Cl)cc2)n1 [Pyraclostrobin, pyraclostrobin]
inhibition at 0.1575 ppm [3, 8]: 73%
inhibition at 0.63 ppm [3, 8]: 89%
inhibition at 10 ppm [3, 8]: 100%

CO/C=C(/C(=O)OC)c1ccccc1COc1cccc(C(F)(F)F)n1 [Picoxystrobin, picoxystrobin]
Fungal growth inhibition rate (%) Measured value ([4]; Picoxystrobin 0.005 ppm): 36%
Fungal growth inhibition rate (%) Measured value ([4]; Picoxystrobin 0.02 ppm): 57%
Fungal growth inhibition rate (%) Measured value ([4]; Picoxystrobin 0.08 ppm): 71%
Fungal growth inhibition rate (%) Measured value ([4]; Picoxystrobin 0.31 ppm): 87%
Fungal growth inhibition rate (%) Measured value ([4]; Picoxystrobin 1.25 ppm): 94%

CO/N=C(/C(=O)OC)c1ccccc1COc1ccccc1C [Kresoxim-methyl, kresoxim-methyl]
inhibition at 0.02 ppm [5, 9]: 21%
inhibition at 0.08 ppm [5, 9]: 34%
inhibition at 0.31 ppm [5, 9]: 60%
inhibition at 1.25 ppm [5, 9]: 90%

CON=C(C(=O)OC)c1ccccc1CON=C(C)c1cccc(C(F)(F)F)c1 [Trifloxystrobin, trifloxystrobin]
inhibition at 0.02 ppm [6, 10]: 82%
inhibition at 0.08 ppm [6, 10]: 84%
inhibition at 0.31 ppm [6, 10]: 86%

CO/N=C(/C1=NOCCO1)c1ccccc1Oc1ncnc(Oc2ccccc2Cl)c1F [Fluoxastrobin, fluoxastrobin]
inhibition at 0.005 ppm ([7]; Rhynchosporium secalis, read-out: Fungal growth inhibition rate (%) Measured value): 25%

COC(=O)C1(C)CCC(Cc2ccc(Cl)cc2)C1(O)Cn1cncn1 (centres unmarked) [Compound (1)]
Fungal growth inhibition rate (%) Measured value ([1]; Compound (1) 0.078 ppm, Azoxystrobin 0 ppm): 0%
Fungal growth inhibition rate (%) Measured value ([6]; Compound (1) 0.02 ppm, Trifloxystrobin 0 ppm): 9%
Fungal growth inhibition rate (%) Measured value ([5]; Compound (1) 0.078 ppm, Kresoxim-methyl 0 ppm): 7%
Fungal growth inhibition rate (%) Measured value ([7]; Compound (1) 1.25 ppm, Fluoxastrobin 0 ppm): 87%
Fungal growth inhibition rate (%) Measured value ([3]; Compound (1) 0.313 ppm, Pyraclostrobin 0 ppm): 45%
